Test results published in patent US20250049815A1, “25-HYDROXYCHOLESTEROL (25HC), CRYAB AGGREGATION INHIBITOR TO AMELIORIATE VASCULAR STIFFNESS” (Buck Institute for Research on Aging, priority 2021, published 2025).
Entries after “also recorded” stand apart in the source; their conditions may differ.

How the values were obtained:
senescent cells = experiment: Evaluation of senolytic effects in cell culture; type: cell-based
Excerpt: Genetic knockdown of this gene kills senescent cells.
There are some commercially available analogs of 25HC such as oxysterols (Griffiths et al. (2019) Biochem Soc Trans., 47: 517-526).

[1] = test system: senescent human fetal lung fibroblast (IMR-90); experiment: Cell viability assay (Cell Counting Kit-8) on NS and SEN IMR-90 cells; type: cell-based; conditions: treatment started immediately after removing DMSO/250 nM Doxo, 72 hrs
Method: Panel A) Timeline for DMSO/250 nM Doxo treatment and early-time point timeline for 24(S)-HC and 27HC treatment on NS and SEN cells. 24(S)HC and 27HC treatment were started immediately after removing DMSO/Doxo. Panel B) and C) Cell viability assay were performed on NS and SEN cells treated with different concentrations of 24(S)HC and 27HC, respectively. 24(S)HC and 27HC treatment were done for 72 hrs. The cell viability was analyzed by Cell Counting Kit-8 according to the manufactures' protocol using Spectra Max 190 (Molecular Devices). The value was normalized to that of DMSO. (Mean +/−SE, n=3, *p<0.05, **p<0.01 and ***p<0.001 by student's t-test).

senescent mDFs = experiment: Cell viability assay on NS and SEN mDFs treated with 25HC; type: cell-based, mouse; conditions: 72 hrs
Method: (§1) Panel A) Timeline for DMSO/Doxo treatment and early-time point timeline for 25HC treatment on NS and SEN cells. 25HC treatment was started immediately after removing DMSO/Doxo. Panel B) Cell viability assay was performed on NS and SEN cells treated with different concentrations of 25HC. 25HC treatment was done for 72 hrs. (Mean +/−SD, n=3, *p<0.05, **p<0.01 vs 0 uM by student's t-test).
as §1, with “late-time” for “early-time”, “7 days” for “immediately”, “n=6, **p<0.01, ***p<0.001, ****p<0.0001,” for “n=3, *p<0.05, **p<0.01”

senescent FAPs = experiment: Cell viability assay on NS and SEN FAPs treated with 25HC; type: cell-based, mouse; conditions: 25HC started immediately after removing DMSO/Doxo (early time point), total 5 days
Method: as §1, with “total 5 days. The value was normalized to that of 0 uM. The average value of 0 M is expressed as 100%” for “72 hrs.”, “+/−SE,” for “+/−SD,”, “n=3,” for “n=3, *p<0.05,”, “and ***p<0.001” for “vs 0 uM”, “t-test vs NS).” for “t-test).”

[2] = test system: aged female C57BL/6J p16-3MR mice; experiment: Pulsed wave velocity (PWV) of the aorta by doppler imaging in aged mice; type: in vivo, mouse; conditions: 27 months at baseline, 25HC 50 mpk IP or GCV, 1 and 2 months post treatment, vs untreated controls
Method: At baseline, animals were evaluated for blood flow in the aorta using doppler imaging. This determines a measure of vascular stiffness with vessels being more stiff having faster flow.

CRYAB = conditions: Makley et al. (2015) Science, 350: 674-7; cited from earlier work
[3] = test system: mouse dermal fibroblasts (mDFs); experiment: qPCR of senescence marker and CRYAB mRNA in Doxo treated mDFs; type: cell-based; conditions: 250 nM Doxo for 24 hours; day 1, 5, 14; normalized to β-actin, vs DMSO
Method: (§2) As shown, mDFs undergo senescence upon 250 nM of Doxo treatment for 24 hours (Day 0). Real-time quantitative PCR (qPCR) was performed on RNA samples isolated from DMSO treated NS (Non-Senescent) mDF cells or Doxo treated SEN (Senescent) mDF cells at day 1, 5, and 14 after Doxo treatment. The amount of mRNA was normalized to the level of β-actin (see, e.g., Demaria et al. (2017) Cancer Discovery, 2: 165-176; and references cited therein). Relative levels of p16INK4a mRNA for DMSO and Doxo treated mDFs was measured. The average value of DMSO is expressed as 1. (Mean +/−SE, n=4, **p<0.01, ****p<0.0001 by Dunnett's multiple comparisons test vs DMSO).
as §2, with “Real-time” for “As shown, mDFs undergo senescence upon 250 nM of Doxo treatment for 24 hours (Day 0). Real-time”, “NS” for “NS (Non-Senescent)”, “SEN” for “SEN (Senescent)”, “CRYAB” for “p16INK4a”, “*p<0.05, ***p<0.001” for “**p<0.01, ****p<0.0001”

[4] = test system: mouse primary fibro adipogenic progenitors (FAPs); experiment: qPCR of senescence marker and CRYAB mRNA in Doxo treated FAPs; type: cell-based; conditions: normalized to β-actin, vs DMSO
Method: As shown, FAPs undergo senescence upon 250 nM of Doxo treatment for 24 hours (Day 0). The mRNA was extracted from DMSO treated NS or Doxo treated SEN FAPs at indicated time points and quantified by qPCR. The amount of mRNA was normalized to the level of β-actin. The graphs show the relative levels of p16INK4a mRNA for DMSO and Doxo treated samples. The average value of DMSO is expressed as 1 (Mean +/−SE, n=3, *p<0.05 by Dunnett's multiple comparisons test vs DMSO).
The cells were treated with 250 nM doxorubicin and incubated for 24 hrs (Day 0). The mRNA was extracted from DMSO treated NS or Doxo treated SEN FAPs at the indicated time points and quantified by qPCR. The amount of mRNA was normalized to the level of β-actin mRNA. The average value of DMSO is expressed as 1 (Mean +/−SE, n=3, **p<0.01 and ***p<0.001 by Dunnett's multiple comparisons test vs DMSO).

SMILES | senolytic effect (senescent cells) | further results
C[C@@H](CCCC(C)(O)c1ccccc1)C1CCC2C3CC=C4C[C@H](O)CC[C@@]4(C)C3CC[C@]21C (relative stereo) [rel-(3R,10S,13S)-17-[(2S)-6-hydroxy-6-phenylheptan-2-yl]-10,13-dimethyl-2,3,4,7,8,9,10,11,12,13,14,15,16,17-tetradecahydro-1H-cyclopenta[a]phenanthren-3-ol] | novel senolytics | 
C[C@H](CCCC(C)(C)O)[C@H]1CC[C@H]2[C@@H]3[C@H](O)C=C4C[C@@H](O)CC[C@]4(C)[C@H]3CC[C@]12C [7α,25-Dihydroxycholesterol] | novel senolytics | 
CC(C)CCC[C@@H](C)[C@H]1CC[C@H]2[C@@H]3[C@H](O)C=C4C[C@@H](O)CC[C@]4(C)[C@H]3CC[C@]12C [7αHC, 7α-Hydroxycholesterol] | novel senolytics | 
CC(C)CCC[C@@H](C)[C@H]1CC[C@H]2[C@@H]3[C@@H](O)C=C4C[C@@H](O)CC[C@]4(C)[C@H]3CC[C@]12C [7βHC, 7β-Hydroxycholesterol] | novel senolytics | 
CC(C)CC[C@@H](O)[C@@H](C)[C@H]1CC[C@H]2[C@@H]3CC=C4C[C@@H](O)CC[C@]4(C)[C@H]3CC[C@]12C [22(R)HC, 22(R)-Hydroxycholesterol] | novel senolytics | 
CC(C)[C@@H](O)CC[C@@H](C)[C@H]1CC[C@H]2[C@@H]3CC=C4C[C@@H](O)CC[C@]4(C)[C@H]3CC[C@]12C [24(S)HC, 24(S)-Hydroxycholesterol] | novel senolytics | cell viability of senescent vs non-senescent IMR-90 cells [1]: specifically kill senescent human fetal lung fibroblast; also recorded: specifically kill senescent IMR-90 cells
C[C@H](CCCC(C)(C)O)[C@H]1CC[C@H]2[C@@H]3CC=C4C[C@@H](O)CC[C@]4(C)[C@H]3CC[C@]12C [25HC, 25-hydroxycholesterol] | novel senolytic agent | cell viability of senescent vs non-senescent mDFs, late time point (senescent mDFs; 25HC started 7 days after removing DMSO/Doxo): specifically kills senescent mDFs; cell viability of senescent vs non-senescent mDFs, early time point (senescent mDFs; 25HC started immediately after removing DMSO/Doxo): specifically kills senescent mDFs; cell viability of senescent vs non-senescent FAPs (senescent FAPs): specifically kills senescent FAPs; pulsed wave velocity (PWV) of the aorta [2]: reduces PWV; inhibition of CRYAB (CRYAB): effective inhibitor of CRYAB
CC(=O)CCC[C@@H](C)[C@H]1CC[C@H]2[C@@H]3CC=C4C[C@@H](O)CC[C@]4(C)[C@H]3CC[C@]12C [27-Nor-25-ketocholesterol] | novel senolytics | 
C[C@@H](CO)CCC[C@@H](C)[C@H]1CC[C@H]2[C@@H]3CC=C4C[C@@H](O)CC[C@]4(C)[C@H]3CC[C@]12C [27HC, 27-Hydroxycholesterol] | novel senolytics | cell viability of senescent vs non-senescent IMR-90 cells [1]: specifically kill senescent human fetal lung fibroblast; also recorded: specifically kill senescent IMR-90 cells
CC(CCCN(C)C)C1CCC2C3CC=C4C[C@@H](O)CC[C@]4(C)C3CC[C@]12C (stereo partly drawn) [(3S,10R,13R)-17-(5-(dimethylamino)pentan-2-yl)-10,13-dimethyl-2,3,4,7,8,9,10,11,12,13,14,15,16,17-tetradecahydro-1H-cyclopenta[a]phenanthren-3-ol] | novel senolytics | 
C[C@H](CCC(=O)O)[C@H]1CCC2[C@@H]3CC=C4C[C@H](O)CC[C@]4(C)C3CC[C@@]21C (stereo partly drawn) [(3alpha,9xi,14xi)-3-hydroxychol-5-en-24-oic acid] | novel senolytics | 
C=C1CC[C@@H](O)CC1=C/C=C1\CCC[C@]2(C)[C@@H]([C@H](C)CCCC(C)(C)O)CC[C@@H]12 [Calcifediol 25-Hydroxyvitamin D3, reference compound] | novel senolytics | 
COc1cccc2c1C(=O)c1c(O)c3c(c(O)c1C2=O)C[C@@](O)(C(=O)CO)C[C@@H]3O[C@H]1C[C@H](N)[C@H](O)[C@H](C)O1 [Doxo, doxorubicin] |  | relative level of CRYAB mRNA [3]: upregulated CRYAB; relative level of p16INK4a mRNA [3]: induces senescence marker, p16INK4a; senescence induction (relative level of p16INK4a mRNA) ([4]; 250 nM Doxo for 24 hours): induced senescence; expression of CRYAB mRNA ([4]; 250 nM doxorubicin for 24 hrs): significantly increased
Nc1nc(O)c2ncn(COC(CO)CO)c2n1 [GCV, ganciclovir, reference compound] |  | pulsed wave velocity (PWV) of the aorta [2]: reduces PWV
